# Laboratory results from patent US12440476B2, “Agents that target telomerase reverse transcriptase (TERT) for treating cancer and sensitizing cancer cells to genotoxic therapy” (Northwestern University, priority 2022, dated 2025).
# What was measured:
# [1] = tested on: Saos-2 cells; assay: DNA damage foci staining (53BP1, γH2AX); type: cell-based, human; conditions: 1 μM NU-1, 0 or 6 Gy
# Description: MCF7 or Saos-2 cells were seeded on sterile cover glass at 2.5×10^4 per well in 24-well plates. MCF7 cells were treated with DMSO, NU-2 (0.5 μM), NU-1 (0.5 μM), chrolactomycin (0.5 μM), BIBR 1532 (10 μM), or MST-312 (1 μM) for 1 h, and Saos-2 cells were treated with DMSO or NU-1 (1 μM) for 1 h, followed by 0 or 6 Gy irradiation. 24 h after irradiation, cells were fixed with 4% PFA for 10 min and permeabilized with 0.2% Triton-X 100 diluted in PBS for 10 min at room temperature. After blocking with 5% BSA-PBS for 1 h, primary antibodies for γH2AX (Millipore, 05-636, 1:1000) or 53BP1 (Novus, NB100-304, 1:1000) diluted in 5% BSA-PBS were then incubated on cell slides overnight at 4° C. Following PBS washes, DAPI (1 μg/mL) and fluorescent secondary antibodies (Jackson ImmunoResearch, 1:2000, ) diluted in 5% BSA-PBS were applied for 1 h at room temperature. Cell slides were mounted with ProLong Gold Antifade Mountant (Thermo Fisher Scientific) after PBS washes. Foci images were captured on a Zeiss Axiovert 40CFL with a 40× Plan-NeoFluar objective and pseudo-colored using Fiji. Three replicates were performed.
# [2] = tested on: CD8+ T cells; assay: In vitro T cell priming assay (CFSE dilution); type: cell-based, mouse; conditions: DCs stimulated by inhibitor treated and irradiated (10 Gy) CT26 cells; 5 days; NU-1 1 μM, MST 2 μM
# Description: To evaluate effects of TERT on tumor immunogenicity, CT26 cells were seeded at […] per well in 12-well plates, allowed to attach overnight, and then treated with DMSO, NU-1 (1 μM), or MST-312 (2 μM) for 1 h, followed by 0 or 10 Gy. 5 days after IR, the media were removed, cells washed with PBS, and fresh immune cell culture medium added. CT26 cells were then cultured overnight, followed by coculturing with immature BMDCs for 12-16 h at a 1:2 ratio. After coculture, the suspension BMDCs were collected into round bottom FACS tubes, washed with PBS, and stained with Zombie yellow (1:1000, BioLegend) for 10 min at room temperature. […] After PBS washing, cells were resuspended in 300 μL Cell Staining Buffer and analyzed using a BD Fortessa 4-15 HTS Flow cytometer within 2 hours. Data were then analyzed by FlowJo software. […]
# Splenocytes isolated from CT26 immunized mice were stained with 0.5 μM carboxyfluorescein succinimidyl ester (CFSE) (Thermo Fisher Scientific, Cat #C34554) for 10 min at room temperature (Quah et al., 2007). […] Cells were analyzed using a BD Fortessa 4-15 HTS flow cytometer and FlowJo software. […]
smiles,measurement,setting,value
C=C1C(=O)[C@](C)(C(=O)OC)[C@H](CCc2cn(Cc3ccc(F)cc3F)nn2)O[C@@H]1C [NU-1],Effect on 53BP1 or γH2AX foci,[1],appeared not to impact 53BP1 or γH2AX foci
same,Proliferating CD8+ T cells,[2],33.5%
